{"source": "patent US12409209B2", "about": "“Biological function regulating agent, epidermal metabolism promoting agent, fat accumulation inhibiting agent, fat decomposition promoting agent, adiponectin production promoting agent, functional food, cosmetic product, and method for producing biological function regulating agent” (NITTA GELATIN INC., priority 2020, dated 2025)", "key": {"[1]": {"system": "fat cells differentiated from mouse-derived precursor fat cells (3T3-L1)", "assay": "Third test: fat accumulation in fat cells (Oil Red O, OD 520 nm)", "assay_type": "cell-based", "settings": "positive control, final conc. 2 μg/mL; 3T3-L1 5 passages, 9 PDL; average of three", "experimental": "Specifically, the third test was conducted in accordance with the following procedure. The mouse-derived precursor fat cells (manufactured by Research Resources Bank, Resource No. JCRB 9014, Lot No. 01282009) were precultured in a culture medium (DMEM/F12 medium (passage culture, catalog No: “11330-032”, manufactured by Gibco Company, containing 10 mass % FBS, penicillin and streptomycin). Subsequently, from the medium and the cells subjected to the preculture, a cell suspension liquid containing the cells at 3×10^4 cells/mL was prepared. Further, 5 mL of the cell suspension liquid was seeded in each of 60 mm dishes (catalog No: Corning, Cat. No. 430166) (1.5×10^5 cells/dish), and cultured for 2 days under the condition of 37° C. (5 vol % CO2). […] 200 μL of the extraction liquid was transferred to a 96-well plate, and the absorbance at OD 520 nm was measured with an absorption spectrometer (trade name: “Synergy HTX” manufactured by Biotech Japan Corporation). It is evaluated that the higher the value of the absorbance at OD 520 nm, the more likely the fat accumulation is to occur in fat cells. […] The fat accumulation ratio in fat cells containing each sample, the berberine chloride solution or RO water was determined in accordance with the following calculation expression. […]"}, "[2]": {"system": "fat cells differentiated from mouse-derived precursor fat cells (3T3-L1)", "assay": "Eleventh test: fat accumulation in fat cells (Oil Red O)", "assay_type": "cell-based", "settings": "positive control, final conc. 2 ug/mL; 3T3-L1 7 passages, 13 PDL", "experimental": "The mouse-derived precursor fat cells (manufactured by Research Resources Bank, Resource No. JCRB 9014, Lot No. 01282009) were precultured in a culture medium (DMEM/F12 medium (passage culture, catalog No: “11330-032”, manufactured by Gibco Company, containing 10 mass % FBS, penicillin and streptomycin). Subsequently, from the medium and the cells subjected to the preculture, a cell suspension liquid containing the cells at 3×10^4 cells/mL was prepared. Further, 5 mL of the cell suspension liquid was seeded in each of 60 mm dishes (catalog No: Corning, Cat. No. 430166) (1.5×10^5 cells/dish), and cultured for 2 days under the condition of 37° C. (5 vol % CO2). […] 200 μL of the extraction liquid was transferred to a 96-well plate, and the absorbance at OD 520 nm was measured with an absorption spectrometer (trade name: “Synergy HTX” manufactured by Biotech Japan Corporation). It is evaluated that the higher the value of the absorbance at OD 520 nm, the more likely the fat accumulation is to occur in fat cells. […] The fat accumulation ratio in fat cells containing each sample, the berberine chloride solution or RO water was determined in accordance with the following calculation expression. Fat accumulation ratio (%)=[(measured value at OD 520 nm for each sample)/(measured value at OD 520 nm for blank)×100] […]"}}}
{"compound": "COc1ccc2cc3[n+](cc2c1OC)CCc1cc2c(cc1-3)OCO2", "note": "[Berberine chloride, berberine chloride]", "values": [{"measurement": "Fat accumulation ratio, Ave (Blank = 100)", "setting": "[1]", "result": 37, "unit": "%"}, {"measurement": "Fat accumulation ratio, Ave (Blank = 100)", "setting": "[2]", "result": 60, "unit": "%"}]}
